How the values were obtained:
[1] = test system: lipases and esterases in human plasma; settings: cited from earlier work
[2] = infusions of 2N Na+-Pyruvate into swine; cited from earlier work
[3] = cited from earlier work
[4] = test system: lactate dehydrogenase in red blood cells and the lung parenchyma; settings: due to lactate dehydrogenase in red blood cells and lung parenchyma; cited from earlier work
[5] = aqueous conditions; cited from earlier work
[6] = Osmolality of infusion solutions; type: physicochemical
Description: In its simplest form, the MCC cocktail would be sodium-L-(+)-Lactate prepared by titrating L-(+)-Lactic acid with NaOH. The following describe such procedures: (24, 52, 55-57). Briefly, the MCC infusion cocktail is prepared by mixing concentrated (30-88%) L-(+)-lactic acid solution (e.g., Sigma-Aldrich or PCCA) in 2 N NaOH to pH 4.8. In the example provided, the starting point is a 30% stock lactic acid solution: 300 g 30% lactic acid stock solution is titrated with 133.3 g 2N NaOH and diluted to 1,000 ml with water. This will produce a 11.2% weight-by-volume (“w/v”) MCC cocktail (sodium-L-(+)-Lactate) with an osmolality approximating 2,000 mOsm/l. Depending on the stock lactic acid solution used, a NaOH titrating solution>2 N may be necessary to neutralize stock lactic acid without exceeding the intended volume. Regardless of the specifics of acid titration, a 1.72% Na^+-lactate aqueous solution is isosmotic (308 mOsm/l); consequently, as initially mixed the above described MCC is far too concentrated to be given in a peripheral vein and will need to be diluted to less than 1,000 mOsm/l (a 5.6% Na^+-lactate solution). In a peripheral arm vein and a 5.0-5.6% Na^+-lactate MCC should be given with normal (0.9%, 308 mOsm/l) saline or another isosmotic solution such as […] (dextrose) in water, commonly called D5W (see more below).
In another version of the simplest form, the MCC cocktail would be sodium-L-(+)-Lactate prepared from the dry, powdered salt in deionized water to the concentration intended [e.g., for an isosmotic solution: 154 mM lactate (plus 154 mM Na^+) total osmolarity 308 mOsm/l], and infused in the above-stated amounts to raise arterial [lactate] to the intended levels.
State of the art is to provide parenteral nutritive support to patients using 5% dextrose (D5W, glucose in water, vide supra). Because glucose (dextrose) has a molecular weight of 180, osmolality of D5W is 278 mM, which in the low range of normal plasma osmolality ([…]). Even though the glucose concentration in D5W is 50 times greater than homeostatic in plasma, in terms of its isosmotic effect with glucose alone being the only solute, D5W is isosmotic. Mixing equal isosmotic solutions such as equal volumes of 154 mM Sanguisal-L and D5W glucose will produce an osmolality in the high end of the normal range. As noted earlier, this slightly elevated osmolality because of sodium content will draw fluid from tissues into the vascular compartment, thus mitigating swelling due to injury (15).

[7] = lactate clamp procedure, exogenous lactate

In the case of `CC(O)C(=O)OCC(COC(=O)C(C)O)OC(=O)C(C)O` (stereo not drawn) [Glycerol tri-lactate, glycerol tri-lactate], the “dissociation of individual units in human plasma” value ([1]; lipases and esterases in human plasma) is listed as “rapidly dissociate”.

In the case of `CC(=O)C(=O)[O-].[Na+]` [Na^+-Pyruvate, sodium-L-(+)-Pyruvate], the “arterial [lactate]” value [2] is listed as 8 mM and the “arterial [pyruvate]” value [2] is listed as 3.5 mM.

For `CC(O)C(=O)O` (stereo not drawn) [lactate, 2-hydroxy-propionate], the “safety of route and amount of vascular lactate administration” value ([3]; approximately 3 mg/kg/min, vascular) is given as “safe”, the “blood pH” value [3, 7] is given as “raises pH” and the “effects on plasma electrolytes” value [3, 7] is given as “without major effects”. For the same molecule, the side effects ([3]; oral or intravenous administration) was “no apparent side effects except mild alkalosis”.

In the case of `CC(=O)C(=O)O` [pyruvate], the conversion in circulation/blood [4] is given as “rapidly converted to lactate” and the “stability in aqueous solutions” value [5] is given as “spontaneous degradation”.

In the case of `C[C@H](O)C(=O)[O-].[Na+]` [sodium-L-(+)-Lactate], the “higher blood lactate levels seen/used without ill effects” value ([3]; sodium lactate MCC infusion) is listed as 6 mM, the total osmolarity ([6]; 154 mM lactate plus 154 mM Na+, isosmotic solution) is listed as 308 mOsm/l and the osmolality ([6]; 1.72% aqueous solution, isosmotic) is listed as 308 mOsm/l. The osmolality ([6]; 5.6% solution) was 1,000 mOsm/l and the osmolality ([6]; 11.2% w/v MCC cocktail) was ~2,000 mOsm/l.

In the case of Arginyl lactate, the “dissociation of individual units at neutral pH” value ([1]; neutral pH as exists in human plasma) is given as “dissociate spontaneously”.

Source: patent US10905148B2, “Systems and methods for monitoring of blood lactate and targeting of blood lactate via nutritional support” (Run Them Sweet LLC, priority 2012, dated 2021)
